Results on one compound are retold here after patent publication US5229265A, “Process for analyzing clastogenic agents” (Litron Laboratories, priority 1990, dated 1993).

The subject of this data set is polychromatic cells (PCEs). Kind of data set: PCE count in blood by flow cytometry. In kind it is in vivo, mouse. Conditions: mice dosed with DMBA. On the procedure:
When two dyes are used for simultaneous micronucleus and PCE discrimination, the cell suspension is prepared as follows: The Hoechst 33258 working solution described above is prepared and is filtered through an 0.2 micron Acro-disk (Gilman Sciences). In addition, a propidium iodide (PI) working solution is prepared (5 mg PI/100 ml phosphate buffered saline (PBS)). A buffer-dye solution is then prepared by adding the PI solution (100 μl) and Hoechst 33258 working solution (25 μl) to PBS (867.5 μl). The resulting buffer-dye solution is then dispensed (992.5 μl) into samples tubes. A sample of fixed blood (15 μl) is then added to the corresponding tube. When blood from a malaria (P. berghei) infected mouse was fixed and stained by this procedure, the bivariate pattern shown in FIG. 1B resulted, in which a stronger red fluorescence signal was obtained. In this case, good resolution is achieved if BSA is omitted from the stained cell suspension. The pH of the stained solution is important for good fluorescence emission profiles and resolution of the different cell populations. With Hoechst 33258 and propidium iodide, good results can be obtained in the range from pH 6 to pH 8. Lower or higher pH levels cause a broadening of the fluorescence patterns which adversely affect the resolution of the PCes and micronucleated cells. Operationally,it is advisable to store the fixed samples and analyze freshly stained samples.
Although it is inappropriate to directly compare the number of MNs in the 0 hr and 96 hr samples because of this PCE change, it is possible to normalize the data to take into account said change. An increase in the number of PCEs will cause a decrease in the total number of MNs counted in the PCE window for a 96 hour sample. […]
Another staining embodiment of this invention involves the use of dual parameter data acquisition in conjunction with two dyes, Hoechst 33258 and propidium iodide so as to analyze both MNs and PCEs. […] Propidium iodide endows the PCEs with a strong red fluorescence signal which pulls them out of the RBC contour. […]

Consider `Cc1c2ccccc2c(C)c2c1ccc1ccccc12` [DMBA, dimethyl benzathracene], for which the “production of PCEs” value was “production of PCEs is suppressed”.
